{
  "source": "ChEMBL document CHEMBL1123491",
  "about": "“N6-substituted N-alkyladenosine-5'-uronamides: bifunctional ligands having recognition groups for A1 and A2 adenosine receptors” (J Med Chem, 1986)",
  "key": {"Adenosine receptor A1 [1]": {"molecular_target": "T1, Adenosine receptor A1 (Rattus norvegicus, UniProt P25099)", "T1 sequence (P25099 whole entry)": "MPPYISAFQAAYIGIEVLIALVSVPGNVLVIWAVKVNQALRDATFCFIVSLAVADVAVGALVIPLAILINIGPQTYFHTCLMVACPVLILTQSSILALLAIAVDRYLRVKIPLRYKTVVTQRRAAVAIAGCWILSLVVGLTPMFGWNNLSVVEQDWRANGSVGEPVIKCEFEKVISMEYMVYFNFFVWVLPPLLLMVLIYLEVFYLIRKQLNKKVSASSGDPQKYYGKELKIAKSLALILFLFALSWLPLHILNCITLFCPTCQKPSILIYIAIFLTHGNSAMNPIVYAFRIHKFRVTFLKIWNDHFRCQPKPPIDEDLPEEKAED", "assay": "Potency against rat brain A1 adenosine receptor"}, "Adenosine A2 receptor [2]": {"molecular_target": "Adenosine A2 receptor (Rattus norvegicus, UniProt P29276+P30543)", "assay": "Potency against PC12 cell A2 adenosine receptor by adenylate cyclase activation", "format": "cell-based", "details": "pc-12"}, "Adenosine receptor A1 [3]": {"molecular_target": "T1, Adenosine receptor A1", "assay": "Potency against rat brain adenosine A1 receptor"}, "Adenosine A2 receptor [4]": {"molecular_target": "Adenosine A2 receptor (Homo sapiens, UniProt P29275+P29274)", "assay": "Potency against human platelet A2 adenosine receptor"}, "[5]": {"molecular_target": "T2, Adenosine receptor A1 (Rattus norvegicus) (UniProt P25099)", "T2 sequence (whole entry)": "T1 sequence (P25099 whole entry)", "assay": "Potency against rat brain adenosine A1 receptor at 10 uM"}},
  "data": [
    {"smiles": "CCC(CC)Nc1ncnc2c1ncn2C1O[C@H](C(=O)NC(C)C)[C@@H](O)[C@H]1O", "note": "(some centres undefined)", "values": [
      {"measurement": "IC50", "setting": "Adenosine receptor A1 [1]", "result": 11, "unit": "nM"},
      {"measurement": "EC50", "setting": "Adenosine A2 receptor [2]", "result": 5100, "unit": "nM"}
    ]},
    {"smiles": "CCNC(=O)[C@H]1OC(n2cnc3c(N(C)C)ncnc32)[C@H](O)[C@@H]1O", "note": "(some centres undefined)", "values": [
      {"measurement": "IC50", "setting": "Adenosine receptor A1 [3]", "result": 10000, "unit": "nM"},
      {"measurement": "EC50", "setting": "Adenosine A2 receptor [4]", "result": "> 100000", "unit": "nM"},
      {"measurement": "EC50", "setting": "Adenosine A2 receptor [2]", "result": "> 100000", "unit": "nM"}
    ]},
    {"smiles": "CCC(CC)NC(=O)[C@H]1OC(n2cnc3c(NC(CC)CC)ncnc32)[C@H](O)[C@@H]1O", "note": "(some centres undefined)", "values": [
      {"measurement": "IC50", "setting": "Adenosine receptor A1 [3]", "result": 1400, "unit": "nM"},
      {"measurement": "EC50", "setting": "Adenosine A2 receptor [2]", "result": "> 100000", "unit": "nM"}
    ]},
    {"smiles": "CCNC(=O)[C@H]1OC(n2cnc3c(NC4CCCCC4)ncnc32)[C@H](O)[C@@H]1O", "note": "(some centres undefined)", "values": [
      {"measurement": "EC50", "setting": "Adenosine A2 receptor [2]", "result": 1830, "unit": "nM"}
    ]},
    {"smiles": "C=CCNC(=O)[C@H]1OC(n2cnc3c(NC(CC)CC)ncnc32)[C@H](O)[C@@H]1O", "note": "(some centres undefined)", "values": [
      {"measurement": "IC50", "setting": "Adenosine receptor A1 [3]", "result": 17, "unit": "nM"},
      {"measurement": "EC50", "setting": "Adenosine A2 receptor [2]", "result": 8900, "unit": "nM"}
    ]},
    {"smiles": "CCC(CC)Nc1ncnc2c1ncn2C1O[C@H](C(=O)NC2CC2)[C@@H](O)[C@H]1O", "note": "(some centres undefined)", "values": [
      {"measurement": "IC50", "setting": "Adenosine receptor A1 [1]", "result": 2, "unit": "nM"},
      {"measurement": "EC50", "setting": "Adenosine A2 receptor [2]", "result": 540, "unit": "nM"}
    ]},
    {"smiles": "CCNC(=O)[C@H]1O[C@@H](n2cnc3c(N[C@H](CC)Cc4ccccc4)ncnc32)[C@H](O)[C@@H]1O", "values": [
      {"measurement": "IC50", "setting": "Adenosine receptor A1 [3]", "result": 0.52, "unit": "nM"}
    ]},
    {"smiles": "CCC(CC)Nc1ncnc2c1ncn2C1O[C@H](C(=O)NC)[C@@H](O)[C@H]1O", "note": "(some centres undefined)", "values": [
      {"measurement": "IC50", "setting": "Adenosine receptor A1 [3]", "result": 20, "unit": "nM"},
      {"measurement": "EC50", "setting": "Adenosine A2 receptor [2]", "result": 6400, "unit": "nM"}
    ]},
    {"smiles": "O=C([C@H]1OC(n2cnc3c(N4CCCCC4)ncnc32)[C@H](O)[C@@H]1O)N1CCCCC1", "note": "(some centres undefined)", "values": [
      {"measurement": "inhibition", "setting": "[5]", "result": 0, "unit": "%"},
      {"measurement": "EC50", "setting": "Adenosine A2 receptor [2]", "result": "> 100000", "unit": "nM"}
    ]},
    {"smiles": "NC(=O)[C@H]1OC(n2cnc3c(N)ncnc32)[C@H](O)[C@@H]1O", "note": "(some centres undefined)", "values": [
      {"measurement": "IC50", "setting": "Adenosine receptor A1 [3]", "result": 70, "unit": "nM"},
      {"measurement": "EC50", "setting": "Adenosine A2 receptor [4]", "result": 5700, "unit": "nM"},
      {"measurement": "EC50", "setting": "Adenosine A2 receptor [2]", "result": 1560, "unit": "nM"}
    ]},
    {"smiles": "Nc1ncnc2c1ncn2[C@@H]1O[C@H](C(=O)NC2CC2)[C@@H](O)[C@H]1O", "values": [
      {"measurement": "EC50", "setting": "Adenosine A2 receptor [4]", "result": 260, "unit": "nM"}
    ]},
    {"smiles": "CNC(=O)[C@H]1O[C@@H](n2cnc3c(N)ncnc32)[C@H](O)[C@@H]1O", "values": [
      {"measurement": "IC50", "setting": "Adenosine receptor A1 [3]", "result": 105, "unit": "nM"},
      {"measurement": "EC50", "setting": "Adenosine A2 receptor [4]", "result": 1700, "unit": "nM"}
    ]},
    {"smiles": "CCNC(=O)[C@H]1O[C@@H](n2cnc3c(N[C@H](C)Cc4ccccc4)ncnc32)[C@H](O)[C@@H]1O", "values": [
      {"measurement": "IC50", "setting": "Adenosine receptor A1 [3]", "result": 2.4, "unit": "nM"},
      {"measurement": "EC50", "setting": "Adenosine A2 receptor [4]", "result": 3100, "unit": "nM"},
      {"measurement": "EC50", "setting": "Adenosine A2 receptor [2]", "result": 980, "unit": "nM"}
    ]},
    {"smiles": "CCC(CC)Nc1ncnc2c1ncn2C1O[C@H](C(=O)NCc2ccccc2)[C@@H](O)[C@H]1O", "note": "(some centres undefined)", "values": [
      {"measurement": "IC50", "setting": "Adenosine receptor A1 [3]", "result": 104, "unit": "nM"},
      {"measurement": "EC50", "setting": "Adenosine A2 receptor [2]", "result": "> 100000", "unit": "nM"}
    ]},
    {"smiles": "CCC(CC)Nc1ncnc2c1ncn2C1O[C@H](C(=O)N(C)C)[C@@H](O)[C@H]1O", "note": "(some centres undefined)", "values": [
      {"measurement": "IC50", "setting": "Adenosine receptor A1 [3]", "result": 13000, "unit": "nM"},
      {"measurement": "EC50", "setting": "Adenosine A2 receptor [2]", "result": "> 100000", "unit": "nM"}
    ]},
    {"smiles": "CCC(CC)Nc1ncnc2c1ncn2C1O[C@H](C(=O)N(CC)CC)[C@@H](O)[C@H]1O", "note": "(some centres undefined)", "values": [
      {"measurement": "IC50", "setting": "Adenosine receptor A1 [3]", "result": 1700, "unit": "nM"},
      {"measurement": "EC50", "setting": "Adenosine A2 receptor [2]", "result": "> 100000", "unit": "nM"}
    ]},
    {"smiles": "CCCCN(C)C(=O)[C@H]1OC(n2cnc3c(NC(CC)CC)ncnc32)[C@H](O)[C@@H]1O", "note": "(some centres undefined)", "values": [
      {"measurement": "EC50", "setting": "Adenosine A2 receptor [2]", "result": "> 100000", "unit": "nM"}
    ]},
    {"smiles": "CCNC(=O)[C@H]1O[C@@H](n2cnc3c(N[C@@H](CC)Cc4ccccc4)ncnc32)[C@H](O)[C@@H]1O", "values": [
      {"measurement": "IC50", "setting": "Adenosine receptor A1 [3]", "result": 26, "unit": "nM"}
    ]}
  ]
}
